Measurements from ChEMBL document CHEMBL1142309, “The discovery of GSK221149A: a potent and selective oxytocin antagonist” (Bioorg Med Chem Lett, 2008).
pIC50, pKi: −log10 of the molar value. Converted amounts (≈) assume the structure as drawn. Where a SMILES comes first, the peptide text is derived from it. Bridges are numbered along the chain shown (N, C = ends). [ ]: non-standard residue; d: D form. Orn = NCCC[C@H](N)C(=O)O; Mpa = O=C(O)CCS

How the values were obtained:
Oxytocin receptor = molecular target: T1, Oxytocin receptor (Homo sapiens, UniProt P30559); test: Binding affinity to human oxytocin receptor; settings: for Ki: read-out: Log Ki (converted)
T1 sequence (P30559 whole entry): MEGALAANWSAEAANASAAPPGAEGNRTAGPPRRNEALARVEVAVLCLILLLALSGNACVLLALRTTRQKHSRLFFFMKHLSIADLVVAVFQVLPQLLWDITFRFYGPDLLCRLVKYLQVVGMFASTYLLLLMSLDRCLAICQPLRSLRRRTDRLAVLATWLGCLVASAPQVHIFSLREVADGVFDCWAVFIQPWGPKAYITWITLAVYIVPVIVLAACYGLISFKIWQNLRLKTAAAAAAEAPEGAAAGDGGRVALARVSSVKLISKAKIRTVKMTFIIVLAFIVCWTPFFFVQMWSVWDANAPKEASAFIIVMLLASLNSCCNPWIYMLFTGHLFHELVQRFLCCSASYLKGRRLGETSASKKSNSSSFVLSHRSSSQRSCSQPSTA

[1] = Aqueous solubility of the compound; assay type: physicochemical; settings: buffer
[2] = Distribution coefficient, log D of the compound; assay type: physicochemical; settings: chromatographic
Cytochrome P450 3A4 = Cytochrome P450 3A4 (Homo sapiens, UniProt P08684); test: Inhibition of CYP3A4; assay type: ADME
[3] = Binding affinity to human serum albumin; assay type: ADME, cell-free; settings: read-out: PB (converted)
[4] = Bioavailability in rat at 2 mg/kg, iv or 5 mg/kg, po; assay type: ADME, organism-based; settings: in vivo
[5] = Clearance in rat at 2 mg/kg, iv or 5 mg/kg, po; assay type: ADME, organism-based; settings: in vivo
Vasopressin V1b receptor = molecular target: T2, Vasopressin V1b receptor (Homo sapiens, UniProt P47901); test: Binding affinity to human vasopressin V1b receptor
T2 sequence (P47901 whole entry): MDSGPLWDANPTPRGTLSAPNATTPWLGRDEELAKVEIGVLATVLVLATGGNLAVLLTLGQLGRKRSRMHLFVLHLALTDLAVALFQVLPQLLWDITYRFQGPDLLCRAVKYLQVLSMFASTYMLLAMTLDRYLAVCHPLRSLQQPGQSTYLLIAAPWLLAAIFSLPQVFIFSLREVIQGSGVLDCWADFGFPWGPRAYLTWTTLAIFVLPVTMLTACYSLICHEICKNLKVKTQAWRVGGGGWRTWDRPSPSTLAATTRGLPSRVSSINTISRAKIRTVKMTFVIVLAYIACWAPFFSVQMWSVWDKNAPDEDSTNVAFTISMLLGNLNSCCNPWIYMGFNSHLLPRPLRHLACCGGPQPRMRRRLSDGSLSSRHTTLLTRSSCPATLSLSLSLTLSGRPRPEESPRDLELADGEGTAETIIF

[6] = AUC in rat at 5 mg/kg, po in DMSO/PEG400 formulation; assay type: ADME, organism-based; parameters: dose 5 mg/kg, route oral; settings: plasma
Vasopressin V2 receptor = Vasopressin V2 receptor (Homo sapiens, UniProt P30518); test: Binding affinity to human vasopressin V2 receptor
[7] = AUC in rat at 5 mg/kg, po in HPMC/Tween formulation; assay type: ADME, organism-based; parameters: dose 5 mg/kg, route oral; settings: plasma
Vasopressin V1a receptor = Vasopressin V1a receptor (Homo sapiens, UniProt P37288); test: Binding affinity to human vasopressin V1a receptor
Rattus norvegicus = test: Decrease in oxytocin-induced uterine contractions in iv dosed non-pregnant Sprague-Dawley rat; assay type: functional, organism-based
[8] = Half life in rat at 2 mg/kg, iv or 5 mg/kg, po; assay type: ADME, organism-based; settings: in vivo
[9] = Selectivity for human oxytocin receptor over vasopressin V1a receptor
[10] = molecular target: Oxytocin receptor (Rattus norvegicus) (UniProt P70536); test: Binding affinity to recombinant oxytocin receptor
Chain of Oxytocin receptor (Rattus norvegicus) (P70536 whole entry, looked up): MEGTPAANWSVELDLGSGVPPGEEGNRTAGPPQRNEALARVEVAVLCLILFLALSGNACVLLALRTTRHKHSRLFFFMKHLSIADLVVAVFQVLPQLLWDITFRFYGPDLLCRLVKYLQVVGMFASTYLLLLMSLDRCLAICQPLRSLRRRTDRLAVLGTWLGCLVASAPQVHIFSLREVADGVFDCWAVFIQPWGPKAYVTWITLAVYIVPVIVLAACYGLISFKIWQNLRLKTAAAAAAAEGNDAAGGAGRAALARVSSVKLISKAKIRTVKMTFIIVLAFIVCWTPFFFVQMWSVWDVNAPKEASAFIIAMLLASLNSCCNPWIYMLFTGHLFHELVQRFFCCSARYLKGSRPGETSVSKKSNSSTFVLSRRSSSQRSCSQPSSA

Chain of Cytochrome P450 3A4 (P08684 whole entry): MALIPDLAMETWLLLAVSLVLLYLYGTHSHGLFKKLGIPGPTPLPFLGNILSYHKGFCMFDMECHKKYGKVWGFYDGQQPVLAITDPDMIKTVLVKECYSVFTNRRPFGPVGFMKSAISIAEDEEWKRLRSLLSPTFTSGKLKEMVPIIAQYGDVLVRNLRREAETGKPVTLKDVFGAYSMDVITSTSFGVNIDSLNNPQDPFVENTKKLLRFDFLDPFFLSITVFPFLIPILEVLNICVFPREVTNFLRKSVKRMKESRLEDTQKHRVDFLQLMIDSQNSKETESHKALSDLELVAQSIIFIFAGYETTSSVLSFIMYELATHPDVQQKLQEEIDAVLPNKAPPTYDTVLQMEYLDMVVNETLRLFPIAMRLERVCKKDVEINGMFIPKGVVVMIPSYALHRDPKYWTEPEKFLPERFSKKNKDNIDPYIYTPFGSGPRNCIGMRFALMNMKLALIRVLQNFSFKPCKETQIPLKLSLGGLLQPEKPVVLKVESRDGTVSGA
Chain of Vasopressin V2 receptor (P30518 whole entry): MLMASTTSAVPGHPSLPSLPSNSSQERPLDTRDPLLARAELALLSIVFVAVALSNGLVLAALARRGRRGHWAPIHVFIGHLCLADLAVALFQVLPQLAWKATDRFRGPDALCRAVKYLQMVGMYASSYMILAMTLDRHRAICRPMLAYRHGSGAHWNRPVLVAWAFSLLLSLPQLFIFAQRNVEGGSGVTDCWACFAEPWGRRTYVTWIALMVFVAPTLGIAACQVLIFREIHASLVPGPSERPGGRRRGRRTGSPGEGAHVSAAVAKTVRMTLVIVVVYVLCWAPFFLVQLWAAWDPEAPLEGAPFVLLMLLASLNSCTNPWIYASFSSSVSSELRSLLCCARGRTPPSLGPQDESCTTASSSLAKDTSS
Chain of Vasopressin V1a receptor (P37288 whole entry): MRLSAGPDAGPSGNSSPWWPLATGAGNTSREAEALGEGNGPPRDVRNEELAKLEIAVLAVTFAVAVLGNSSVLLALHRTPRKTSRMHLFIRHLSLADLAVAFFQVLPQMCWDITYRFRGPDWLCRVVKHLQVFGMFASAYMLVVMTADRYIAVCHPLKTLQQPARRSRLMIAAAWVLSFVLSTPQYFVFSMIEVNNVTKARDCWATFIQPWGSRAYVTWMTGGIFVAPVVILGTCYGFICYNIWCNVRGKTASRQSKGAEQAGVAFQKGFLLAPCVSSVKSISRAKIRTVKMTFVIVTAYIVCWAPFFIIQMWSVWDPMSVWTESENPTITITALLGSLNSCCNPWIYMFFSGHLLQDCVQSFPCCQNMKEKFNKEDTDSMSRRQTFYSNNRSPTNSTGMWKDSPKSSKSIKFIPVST

Row | Compound | Ki (Oxytocin receptor) [nM] | solubility [1] [µg/mL] | pIC50 (Cytochrome P450 3A4) | fraction unbound [3] | also measured
1 | CC(C)C[C@@H]1C(=O)N[C@H](C2Cc3ccccc3C2)C(=O)N1[C@@H](C(=O)NC(C)C)c1cccs1 | 6.31 |  |  |  | 
2 | CNC(=O)c1ccc([C@H](C(=O)NC(C)C)N2C(=O)[C@@H](C3Cc4ccccc4C3)NC(=O)[C@H]2CC(C)C)o1 | 39.8 |  |  |  | 
3 | CC(C)C[C@@H]1C(=O)N[C@H](C2Cc3ccccc3C2)C(=O)N1[C@@H](C(=O)NC(C)C)c1coc(C(F)(F)F)n1 | 0.158 |  |  |  | 
4 | CC(C)C[C@@H]1C(=O)N[C@H](C2Cc3ccccc3C2)C(=O)N1[C@@H](C(=O)NC(C)C)c1ccc(Br)s1 | 2 | < 1 | 6.00 | 0.01 | logD [2]: 3.7
5 | CC(C)C[C@@H]1C(=O)N[C@H](C2Cc3ccccc3C2)C(=O)N1[C@@H](C(=O)NC(C)C)c1ccc(F)cc1F |  | < 1 | 5.40 | 0.07 | logD [2]: 3.4
6 | CC(C)C[C@@H]1C(=O)N[C@H](C2Cc3ccccc3C2)C(=O)N1[C@@H](C(=O)NC(C)C)c1cc(Br)cs1 | 1 |  |  |  | 
7 | Cc1cc([C@H](C(=O)NC(C)C)N2C(=O)[C@@H](C3Cc4ccccc4C3)NC(=O)[C@H]2CC(C)C)oc1C | 1.26 |  |  |  | 
8 | CC(C)C[C@@H]1C(=O)N[C@H](C2Cc3ccccc3C2)C(=O)N1[C@@H](C(=O)NC(C)C)c1ccco1 | 6.31 |  |  |  | 
9 | Cc1nc([C@H](C(=O)N(C)C)N2C(=O)[C@@H](C3Cc4ccccc4C3)NC(=O)[C@H]2CC(C)C)cs1 | 0.398 |  |  |  | 
10 | CC(C)C[C@@H]1C(=O)N[C@H](C2Cc3ccccc3C2)C(=O)N1[C@@H](C(=O)NC(C)C)c1ccc(C(F)(F)F)o1 | 0.1 | < 1 | 5.52 | 0.03 | logD [2]: 3.6
11 | CCOc1ccc(C[C@H]2NC(=O)CCSSC[C@@H](C(=O)N3CCC[C@H]3C(=O)N[C@@H](CCCN)C(=O)NCC(N)=O)NC(=O)[C@H](CC(N)=O)NC(=O)[C@H]([C@@H](C)O)NC(=O)[C@H]([C@@H](C)CC)NC2=O)cc1 [ATOSIBAN] ([Mpa][dY](Et)ITNCP[Orn]G-NH2; disulfide 1-6) |  |  |  |  | pKi [10]: 7.49; pKi (Vasopressin V1b receptor): 7.36; pKi (Vasopressin V2 receptor): 6.48; pKi (Oxytocin receptor; read-out: Ki): 7.96; pKi (Vasopressin V1a receptor): 9.82
12 | Cc1ccc([C@H](C(=O)NC(C)C)N2C(=O)[C@@H](C3Cc4ccccc4C3)NC(=O)[C@H]2CC(C)C)o1 | 1 | 34 (≈ 73 µM) | 5.15 | 0.04 | logD [2]: 3.3
13 | CC(C)C[C@@H]1C(=O)N[C@H](C2Cc3ccccc3C2)C(=O)N1[C@@H](C(=O)NC(C)C)c1ccc(-c2ccccn2)s1 | 2.51 |  |  |  | 
14 | CC(C)C[C@@H]1C(=O)N[C@H](C2Cc3ccccc3C2)C(=O)N1[C@@H](C(=O)NC(C)(C)C)c1ccoc1 | 12.6 |  |  |  | 
15 | CC(C)C[C@@H]1C(=O)N[C@H](C2Cc3ccccc3C2)C(=O)N1[C@@H](C(=O)NC(C)C)c1ccc(Br)o1 | 0.794 |  |  |  | 

Now from value to compound, other results behind:

Row | Ki (Oxytocin receptor) [nM] | solubility [1] [µg/mL] | pIC50 (Cytochrome P450 3A4) | fraction unbound [3] | Compound | also measured
16 |  | > 220 | < 4.00 | > 0.2 | CC[C@H](C)[C@@H]1C(=O)N[C@H](C2Cc3ccccc3C2)C(=O)N1[C@@H](C(=O)N1CCOCC1)c1coc(C)n1 [RETOSIBAN] | bioavailability [4]: 100%; clearance [5]: 19 mL/min/kg; pKi (Vasopressin V1b receptor): < 5.00; AUC [6]: 5470 ng·h/mL; pKi (Vasopressin V2 receptor): 6.02; AUC [7]: 1800 ng·h/mL; pKi (Vasopressin V1a receptor): < 4.92; pIC50 (Rattus norvegicus): 6.74; ED50 (Rattus norvegicus; iv, read-out: ID50 (the source's name)): 0.27 mg/kg; half-life [8]: 84 min
17 | 1.58 | > 220 | < 4.00 | > 0.2 | Cc1nc([C@H](C(=O)N2CCC2)N2C(=O)[C@@H](C3Cc4ccccc4C3)NC(=O)[C@H]2CC(C)C)co1 | bioavailability [4]: 45%; clearance [5]: 35 mL/min/kg; AUC [6]: 1070 ng·h/mL; Selectivity ratio [9]: > 10; half-life [8]: 84 min
18 | 2 | > 220 | < 4.00 | > 0.2 | Cc1nc([C@H](C(=O)N2CCOCC2)N2C(=O)[C@@H](C3Cc4ccccc4C3)NC(=O)[C@H]2CC(C)C)co1 | bioavailability [4]: 33%; clearance [5]: 23 mL/min/kg; AUC [6]: 3630 ng·h/mL; AUC [7]: 1190 ng·h/mL; Selectivity ratio [9]: > 10; half-life [8]: 66 min
19 | 0.794 |  |  |  | CC(C)C[C@@H]1C(=O)N[C@H](C2Cc3ccccc3C2)C(=O)N1[C@@H](C(=O)N(C)C)c1coc(C2CC2)n1 | 
20 | 3.16 |  |  |  | Cc1nc([C@H](C(=O)N(C)C)N2C(=O)[C@@H](C3Cc4ccccc4C3)NC(=O)[C@H]2CC(C)C)c(C)o1 | 
21 | 1.26 | > 220 | < 4.00 | > 0.2 | Cc1nc([C@H](C(=O)N(C)CCO)N2C(=O)[C@@H](C3Cc4ccccc4C3)NC(=O)[C@H]2CC(C)C)co1 | AUC [6]: 218 ng·h/mL; Selectivity ratio [9]: > 10
22 | 1.26 | > 240 | < 4.00 | 0.37 | Cc1nc([C@H](C(=O)NC(C)C)N2C(=O)[C@@H](C3Cc4ccccc4C3)NC(=O)[C@H]2CC(C)C)co1 | logD [2]: 2.5; AUC [6]: 225 ng·h/mL; Selectivity ratio [9]: > 10
23 |  | > 220 | < 4.00 | > 0.2 | CC[C@@H](C)[C@@H]1C(=O)N[C@H](C2Cc3ccccc3C2)C(=O)N1[C@@H](C(=O)N1CCOCC1)c1coc(C)n1 | bioavailability [4]: 69%; clearance [5]: 14 mL/min/kg; AUC [6]: 4200 ng·h/mL; half-life [8]: 78 min
